{
  "source": "patent US7588907B2",
  "about": "“Ubiquitin mediated fluorescence complementation assay” (The Regents of the University of Michigan, priority 2005, dated 2009)",
  "origin": "cited, not measured here",
  "tested_on": "Jun ubiquitinated by DCX^hDET1-hCOP1",
  "details": "cells that overexpressed DCX^hDET1-hCOP1 E3 ligase",
  "note": "Residues, ends and D or L forms follow the SMILES beside them. *: point of attachment. Cbz = O=C(OCc1ccccc1)*",
  "data": [
    {"smiles": "CC(C)C[C@@H](C=O)NC(=O)[C@H](CC(C)C)NC(=O)[C@H](CC(C)C)NC(=O)OCc1ccccc1", "note": "[MG132] (Cbz-Leu-Leu-Leu-aldehyde)", "values": [
      {"measurement": "effect on Jun degradation", "result": "inhibited"}
    ]}
  ]
}
